pIC50: −log10 of the molar value.
Legend:
[1] = tested on: Barrett's stem cells and Esophageal stem cells; test: Co-culture of Barrett's stem cell lines and Esophageal stem cells; format: cell-based, human; details: in the presence of Ponatinib
[2] = tested on: Barrett's stem cells (BE stem cells, Krt7+); test: High throughput chemical screening and dose response on GFP-labeled stem cells; format: cell-based, human
JMJD2A (KDM4A) = biological target: T1, JMJD2A (KDM4A) (Homo sapiens, UniProt O75164); details: demethylase activity in vitro; cited from earlier work
T1 sequence (O75164 1-1064): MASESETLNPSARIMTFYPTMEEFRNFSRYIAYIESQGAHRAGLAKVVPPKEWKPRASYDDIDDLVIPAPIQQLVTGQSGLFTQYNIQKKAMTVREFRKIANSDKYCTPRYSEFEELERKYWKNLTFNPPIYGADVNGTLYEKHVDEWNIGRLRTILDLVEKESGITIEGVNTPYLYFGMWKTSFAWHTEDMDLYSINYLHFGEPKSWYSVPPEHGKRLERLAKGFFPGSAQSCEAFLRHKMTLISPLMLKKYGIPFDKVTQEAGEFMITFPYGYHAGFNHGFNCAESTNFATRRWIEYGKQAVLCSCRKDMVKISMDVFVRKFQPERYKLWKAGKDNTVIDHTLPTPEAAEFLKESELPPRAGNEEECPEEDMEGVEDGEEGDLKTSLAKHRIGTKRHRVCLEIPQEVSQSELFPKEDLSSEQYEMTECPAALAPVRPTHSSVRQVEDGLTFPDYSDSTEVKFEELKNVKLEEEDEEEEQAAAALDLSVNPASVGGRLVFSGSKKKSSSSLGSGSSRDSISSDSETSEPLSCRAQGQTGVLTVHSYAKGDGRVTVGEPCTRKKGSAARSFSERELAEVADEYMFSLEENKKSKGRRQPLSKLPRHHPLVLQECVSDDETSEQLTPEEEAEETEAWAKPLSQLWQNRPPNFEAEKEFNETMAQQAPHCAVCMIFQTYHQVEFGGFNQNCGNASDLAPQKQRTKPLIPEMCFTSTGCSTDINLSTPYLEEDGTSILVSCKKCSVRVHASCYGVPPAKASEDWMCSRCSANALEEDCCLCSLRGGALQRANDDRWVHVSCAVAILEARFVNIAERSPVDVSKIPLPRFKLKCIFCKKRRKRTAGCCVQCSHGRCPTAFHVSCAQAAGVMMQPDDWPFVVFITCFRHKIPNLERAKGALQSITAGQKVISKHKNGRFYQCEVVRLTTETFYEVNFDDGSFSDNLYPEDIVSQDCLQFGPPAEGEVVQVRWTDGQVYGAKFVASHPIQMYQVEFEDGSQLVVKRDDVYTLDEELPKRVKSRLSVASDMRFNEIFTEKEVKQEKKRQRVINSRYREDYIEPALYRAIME

[3] = tested on: aggressive breast cancer model; details: in vivo; cited from earlier work
[4] = tested on: Barrett's, dysplasia or EAC stem cells; test: Co-culture of esophageal stem cells with Barrett's, dysplasia or EAC stem cells; format: cell-based, human; details: together with 1 μM Ponatinib
Protocol: FIG. 6. Patient-matched BE, dysplasia and cancer stem cells (Krt7+, Green) were mixed with Krt5+ (red) ESO cells and co-cultured for five days and then treated with seven selected drugs together with 1 μM Ponatinib.
BE has been known to be the precursor of the dysplastic and cancerous lesions of EAC. […] Moreover, PCA analysis of Barrett's stem cells derived from 12 patients together with dysplasia, cancer and Esophageal squamous stem cells confirmed that the stem cells of dysplasia and cancer shared very similar gene expression with Barrett's stem cells (FIGS. 4A & B). […] The effects of the eight drug hits in combination with Ponatinib were tested in the cell culture of co-seeding esophageal stem cells and Barrett's, dysplasia or EAC stem cells. […] Given these three entities always co-exist in patients with EAC, our strategies of eradicating all of them could help to eliminate the chance of recurrence of EAC patients drastically.

[5] = tested on: BE, dysplasia and cancer stem cells; test: 3D (ALI) culture of patient-matched BE, dysplasia and cancer stem cells; format: cell-based, human; details: combined with Ponatinib
From the text: FIG. 5B. Left, Scanned images of top view of BE, dysplasia and cancer stem cells (green) generated ALI structures in the presence of absence of drug combinations.

[6] = tested on: Barrett's stem cells (GFP) and esophageal squamous stem cells (RFP); test: 3D air-liquid interface (ALI) co-culture of Barrett's and esophageal stem cells; format: cell-based, human; details: in the presence of Ponatinib
Protocol: A 3D culture model was generated to mimic Barrett's Esophagus in vitro. The esophageal squamous stem cells and Barrett's stem cells were co-cultured in the transwell insert. Following the creation of air-liquid interface, it was observed that the BE islands located among well-differentiated squamous epithelium that well recapitulated the histology of human BE in the patient. Given the similarity of this artificial model and human pathology, the hits were tested in this system to further validate them. […] The esophageal squamous stem cells were labeled with red fluorescent protein (RFP) while Barrett's stem cells were labeled with green fluorescent protein (GFP). Without the treatment, it was observed that a mixture of GFP and RFP labeled cells in culture.

## Clc1ccc(N/N=C(\c2ccccc2)c2ccccn2)nc1 [JIB04]
[1]
  effect on Esophageal squamous stem cells in co-culture: promoting
[1]; nine Barrett's stem cell lines
  lethality to Barrett's stem cells in co-culture: uniform lethality to all Barrett's stem cells
[2]; in the background of a fixed concentration of Ponatinib
  differential of dose-response curves, BE stem cells versus normal esophageal stem cells: ~1,000 fold
[2]; screened in the background of 1 μM Ponatinib
  lethality towards Barrett's stem cells: displayed the lethality
JMJD2A (KDM4A)
  pIC50: ~6.36
[3]
  tumor burden and survival of mice: reduces tumor burden and prolongs survival
[4]
  growth of BE, dysplasia and cancer stem cells in co-culture with ESO cells: most effective
[5]
  eradication of BE, dysplasia and cancer stem cells in 3D (ALI) culture: eradicate
[6]
  cross sections of the ALI structures: intact esophageal squamous epithelium without any existence of Barrett's epithelium
[6]; eight Barrett's stem cell lines
  GFP labeled Barrett's stem cells in 3D ALI co-culture: disappearance
